Experiments:
[1] = tested on: AvBD2; assay: RT-qPCR of AvBD2 in HTC cells; type: cell-based, chicken; details: BIX01294 with 2 mM butyrate, 24 h (FIG. 5)
Method: (§1) Culture and stimulation of macrophages. Two different chicken macrophage cell lines, HTC (24) and HD11 (25), were kindly provided by Dr. Narayan C. Rath and Dr. Hyun Lillehoj of USDA-ARS and maintained in RPMI 1640 containing 10% heat-inactivated FBS, 100 U/ml penicillin, and 100 μg/ml streptomycin and subcultured every 3-4 days. After overnight seeding at 1.5×10^6 cells/well in 6-well cell culture plates, cells were treated with different concentrations of each compound for 24 h or with the indicated concentration of each compound for various lengths of time for dose-response and time-course experiments, respectively. […]
(§2) Total RNA extraction and gene expression analysis. […] Gene expression was performed using reverse transcription-quantitative PCR (RT-qPCR) as previously described (27-29). […] The cDNA was then diluted 10-fold with RNase-free water prior to real-time PCR using QuantiTect SYBR® Green PCR Kit (Qiagen, Valencia, CA) in 10-μl reactions using primers specific for HDP, barrier function, and inflammatory cytokine genes as described (27, 29, 30). […] The fold changes in gene expression in the cells treated with individual compounds or in combinations were calculated relative to the cells treated with an equal volume of RPMI 1640 or DMSO using the ΔΔCt method (31).

[2] = tested on: AvBD9; assay: RT-qPCR of AvBD9 in HD11 macrophages; type: cell-based, chicken; details: HD11 cells, 5 μM compound with 2 mM butyrate, 24 h (FIG. 6, Panel A)
Method: as §1, §2

[3] = tested on: AvBD14; assay: RT-qPCR of AvBD14 in HTC cells; type: cell-based, chicken; details: 2 mM butyrate and at least one concentration of BIX01294, 24 h (FIG. 5)
Method: as §1, §2

[4] = tested on: AvBD9 mRNA expression; assay: RT-qPCR of AvBD9 mRNA expression in HTC macrophage cells; type: cell-based, chicken
Method: Culture and stimulation of macrophages. Two different chicken macrophage cell lines, HTC (24) and HD11 (25), were kindly provided by Dr. Narayan C. Rath and Dr. Hyun Lillehoj of USDA-ARS and maintained in RPMI 1640 containing 10% heat-inactivated FBS, 100 U/ml penicillin, and 100 μg/ml streptomycin and subcultured every 3-4 days. After overnight seeding at 1.5×10^6 cells/well in 6-well cell culture plates, cells were treated with different concentrations of each compound for 24 h or with the indicated concentration of each compound for various lengths of time for dose-response and time-course experiments, respectively. To study the synergy between HMTi/DNMTi and HDACi, different concentrations of an HMTi or DNMTi were added to the cells in the presence or absence of an HDACi for 24 h, followed by RNA isolation and HDP gene expression analysis as described below. HTC cells were also stimulated with butyrate, BIX01294, or their combination for 24 h, followed by 3-h stimulation with 10 ng/ml LPS and subsequent expression analysis.
Total RNA extraction and gene expression analysis. Total RNA was extracted using RNAzol (Molecular Biology Research Center, Cincinnati, OH) according to the manufacturer's protocol. Gene expression was performed using reverse transcription-quantitative PCR (RT-qPCR) as previously described (27-29). Reverse transcription was performed with 300 ng of total RNA and Maxima® First Strand cDNA Synthesis Kit (ThermoFisher Scientific, Pittsburgh, PA). The cDNA was then diluted 10-fold with RNase-free water prior to real-time PCR using QuantiTect SYBR® Green PCR Kit (Qiagen, Valencia, CA) in 10-μl reactions using primers specific for HDP, barrier function, and inflammatory cytokine genes as described (27, 29, 30). PCR was run in CFX Connect Real-Time PCR System (Bio-Rad, Hercules, CA) using the following program: 95° C. for 10 min, followed by 40 cycles of 94° C. for 15 sec, 55° C. for 20 sec, and 72° C. for 30 sec. The specificity of PCR reactions was confirmed by the melting curve analysis. The glyceraldehyde-3-phosphate dehydrogenase (GAPDH) gene was used as the reference for data normalization. The fold changes in gene expression in the cells treated with individual compounds or in combinations were calculated relative to the cells treated with an equal volume of RPMI 1640 or DMSO using the ΔΔCt method (31).

[5] = tested on: chicken HDP genes; assay: RT-qPCR of multiple HDP genes in HTC cells; type: cell-based
Method: as §1, §2

COc1cc2nc(N3CCCN(C)CC3)nc(NC3CCN(Cc4ccccc4)CC3)c2cc1OC [BIX01294] was tested, and the “AvBD2 upregulation, combination with butyrate” value [1] was 2- to 3 fold, the “synergy in AvBD9 induction with butyrate” value [2] was “drastic synergy” and the “AvBD14 induction, combination with butyrate” value [3] was “greater than 100 fold”. For the same compound, the “impact of LPS on the AvBD9-inducing synergy with butyrate” value ([4]; 5 μM BIX01294 + 2 mM butyrate 24 h, then 10 ng/ml LPS 3 h (FIG. 8, Panel C)) was “no impact”, the “additional increase in AvBD9 gene expression over BIX01294 alone, combination with mocetinostat” value ([4]; 5 μM BIX01294 in combination with 2.5 μM mocetinostat, 24 h (FIG. 7, Panel A)) was 23 fold and the “additional increase in AvBD9 gene expression over BIX01294 alone, combination with butyrate” value ([4]; 5 μM BIX01294 in combination with 2 mM butyrate, 24 h (FIG. 7, Panel A)) was 26 fold. The “additional increase in AvBD9 gene expression over BIX01294 alone, combination with vorinostat” value ([4]; 5 μM BIX01294 in combination with vorinostat (SAHA), 24 h (FIG. 7, Panel A)) was 69 fold, the “additional increase in AvBD9 expression of the butyrate combination over compound alone” value ([4]; 20 μM compound + 2 mM butyrate versus 20 μM compound alone) was 54 fold and the “increase in AvBD9 mRNA expression” value ([4]; 20 μM compound alone, 24 h (FIG. 2, Panel B), peak) was 175 fold. The “induction of AvBD9 expression” value ([4]; 20 μM compound alone, 24 h (FIG. 4, Panels A, B)) was 207 fold, the “increase in AvBD9 expression, combination with butyrate” value ([4]; 20 μM compound in combination with 2 mM butyrate, 24 h (FIG. 4, Panels A, B)) was 11,165 fold and the “synergy with butyrate in AvBD9 mRNA expression” value ([4]; indicated concentrations in combination with 2 mM butyrate, 24 h (FIG. 4)) was “concentration-dependent increase”. The “synergy in AvBD9 induction with HDACi” value ([4]; with any of three HDACi (vorinostat, butyrate, mocetinostat), 24 h (FIG. 7, Panel A)) was “dramatic synergy”, the “induction of the HDP genes detectable in HTC cells, combination with butyrate” value ([5]; BIX01294 with 2 mM butyrate, 24 h (FIG. 5)) was “all were synergistically induced” and the “induction of most other HDP genes, combination with HDACi” value ([5]; BIX01294 with any of the three HDACi (vorinostat, butyrate, mocetinostat), 24 h (FIG. 7, Panel B)) was “synergistically induced”.

Reference: US20250144056A1, “ANTIMICROBIAL HOST DEFENSE PEPTIDE-INDUCING COMPOSITIONS AND METHODS OF PRODUCTION AND USE THEREOF” (Board of Regents for the Oklahoma Agricultural and …, priority 2022, published 2025)
